According to patent US9364480B2, “Pharmaceutical composition for preventing or treating cancer, containing enoblock as active ingredient” (GWANGJU INSTITUTE OF SCIENCE AND TECHNOLOGY, priority 2012, dated 2016):
“Also recorded” adds a separate entry of the source.

Tests used:
[1] = test system: HCT116 colon carcinoma cells; assay: Screening for apoptosis inducers effective under hypoxia (MTT cytotoxicity, hypoxia vs normoxia); type: cell-based
Description: FIG. 1. Discovery of compound AP-III-a4 (ENOblock). (a) Schematic of the screening system used to detect apoptosis inducers effective under hypoxia. HCT116 cancer cells were seeded in parallel 96-well culture plates. Hypoxia was induced in one plate using 150 μM cobalt chloride treatment. Triazine library compound at 5 μM concentration was added 4 h later, and cell death was determined 24 h after hypoxia induction. […] (b) Chemical structures of AP-III-a4 (ENOblock) and the control compounds, AP-IV-e3 and AP-I-f10. Chemical structures of GAPDS, which targets glyceraldehyde 3-phosphate dehydrogenase (GAPDH), and rosiglitazone, a well-known anti-diabetes drug, are also shown. […] Error=SD; *=P value<0.05 for increased cell death compared to normoxia. P value: hypox 10=1.23×10^−6; hypox 5=2.38×10^−6; hypox 2.5=1.16×10^−5; hypox 1.25=0.000334. (d) Representative phase contrast microscopic images of HCT116 colon cancer cells treated with ENOblock under normoxia or hypoxia.
HCT116 colon carcinoma cells were seeded in 2 sets of 96 well plates at a density of 5×10^3 cells per well. ‘Low glucose’ DMEM (containing 5 mM glucose; Invitrogen, OR, USA) was used for screening, because glycolysis inhibitors, such as 2-Deoxy-D-glucose (2-DG), are effective by competing with glucose. 24 h later, the hypoxic condition was induced in one set of 96 well plates by treatment with 150 μM of 0.22 μm filtered CoCl2 and the culture media volume was reduced by 50% (to 100 μL/well), as previously described.^49 4 h later, test compounds from a tagged triazine library^5 were screened at a concentration of 5 μM in duplicate wells. Cytotoxicity was determined by MTT assay 24 h after adding drug. ‘Hits’ for further analysis were classified as compounds that 25% or higher cytotoxicity in the hypoxia condition compared to the normoxia condition (as measured by MTT assay absorbance). 50 μM 2-DG, an inhibitor of glycolysis that selectively kills cancer cells in hypoxic conditions^50, was used as a positive control.
We developed a novel, dual screening system to identify molecules that preferentially kill cancer cells in a hypoxic environment (FIG. 1). A small molecule library of 384 triazines prepared on a solid support5 (5; FIG. 3) was screened. A “hit” molecule was defined as an inducer of at least 25% increased cancer cell toxicity in hypoxia compared to normoxia (as determined using the 3-(4,5-dimethylthiazol-2-yl)-2,5-diphenyltetrazolium bromide, a tetrazole (MTT) assay). Five from 384 triazines screened produced greater cancer cell toxicity under hypoxia.

purified human enolase = purified human enolase (Homo sapiens, UniProt P06733); assay: Affinity matrix binding of purified enolase (Western blot)
Chain of purified human enolase (P06733 whole entry): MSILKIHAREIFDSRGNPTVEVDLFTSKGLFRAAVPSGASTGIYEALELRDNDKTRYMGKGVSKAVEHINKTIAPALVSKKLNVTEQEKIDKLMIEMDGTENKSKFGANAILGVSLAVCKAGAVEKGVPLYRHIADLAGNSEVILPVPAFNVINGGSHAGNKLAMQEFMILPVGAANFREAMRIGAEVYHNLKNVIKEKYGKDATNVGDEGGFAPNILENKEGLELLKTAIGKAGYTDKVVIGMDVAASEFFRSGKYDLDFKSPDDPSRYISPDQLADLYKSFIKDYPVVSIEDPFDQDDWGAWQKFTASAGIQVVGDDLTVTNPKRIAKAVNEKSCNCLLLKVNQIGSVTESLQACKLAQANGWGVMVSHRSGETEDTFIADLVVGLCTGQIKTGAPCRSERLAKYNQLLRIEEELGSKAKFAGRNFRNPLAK
Description: FIG. 4. […] (a) Affinity chromatography study for ENOblock in HCT116 cancer cells. […] (b) Sequence identification for the enolase monomer subunit. […] Mascot scores above 100 were deemed to be significant. […] Twenty micrograms of cell lysate from YD-10B oral cancer cells or Huh7 hepatocytes were used as positive controls. […] As a positive control, ENOblock affinity matrix was incubated with 200 μg of HCT 116 cell lysate; 50 μg cell lysate from HCT116 cancer cells was used as a positive control for the enolase antibody.
Affinity chromatography was used to identify the cellular target for AP-III-a4. Target identification strategies for the triazine library used in this study are relatively straightforward, because the molecules contain a built-in linker moiety. This allows conjugation to an affinity matrix with reduced risk of compromising biological activity.

HCT116 cancer cells [2] = assay: Cancer cell invasion (transwell inserts, crystal violet); type: cell-based; details: HCT116, normoxia
Description: (§1) FIG. 7. […] (b) Microscopic images of crystal violet stained HCT116 cells invaded onto the transwell inserts (scale bar=100 μm). […] (d) Microscopic images of crystal violet stained HCT116 cells migrated onto the transwell inserts (scale bar=100 μm). […] Cells were treated with 10 nM taxol and 10 nM vincristine, with or without 10 μM ENOblock. Error=SD; *=P<0.05 between the groups indicated on the graph. […] For the AKT Western blot, cells were treated with ENOblock for 24 h; for the Bcl-Xl Western blot, cells were treated with ENOblock for 48 h.

HCT116 cancer cells [3] = assay: Sensitivity to antitubulin chemotherapeutics taxol and vincristine; type: cell-based; details: 10 nM taxol or 10 nM vincristine with or without 10 μM ENOblock
Description: as §1

Huh7 hepatocytes = assay: Glucose uptake with fluorescent glucose probe 2-NBDG, hepatocytes; type: cell-based; details: 10 μM, 24 h
HEK kidney cells = assay: Glucose uptake with fluorescent glucose probe 2-NBDG, kidney cells; type: cell-based; details: 10 μM, 24 h
[4] = test system: phosphoenolpyruvate carboxykinase (PEPCK) expression in Huh7 hepatocytes; assay: PEPCK expression in hepatocytes; type: cell-based; details: 10 μM, 24 h
Source text: (§2) FIG. 10. […] Error=SD; *=P<0.05 compared to the no drug (DMSO-treated) group. […] Error=SD; *=P<0.05 for reduced PEPCK expression compared to the no drug (DMSO-treated) group.

[5] = test system: PEPCK expression in HEK cells; assay: PEPCK expression in kidney cells; type: cell-based; details: 10 μM, 24 h
Source text: as §2

[6] = test system: glucose 6-phosphatase (G6 Pase) expression in hepatocytes; assay: G6 Pase expression in hepatocytes; type: cell-based; details: 10 μM, 24 h
Source text: as §2

[7] = test system: pre-adipocytes undergoing adipogenesis; assay: Adipogenesis lipid accumulation (Oil Red O staining); type: cell-based
macrophages [8] = assay: Foam cell formation from macrophages treated with oleic acid; type: cell-based; details: 10 μM
macrophages [9] = assay: Macrophage cytotoxicity (MTT assay); type: cell-based
Description: FIG. 14. […] Treatment with 3 mM H2O2 for 48 h was used as a positive control.

[10] = test system: PEPCK expression in adult zebrafish liver; assay: PEPCK expression in adult zebrafish liver; details: 10 μM, 3 h

NCCOCCOCCNC(=O)Cc1ccc(Nc2nc(NCc3ccc(F)cc3)nc(NCC3CCCCC3)n2)cc1 [ENOblock]
cell viability of cancer cells cultured under hypoxia ([1]; FIG. 1c-1d): reduced cell viability dose-dependently
hit classification in triazine library screen (25% or greater cell death under hypoxia compared to normoxia) ([1]; HCT116, 5 μM compound, 24 h, MTT): best performing hit molecule
cell death in hypoxic conditions compared to normoxia ([1]; HCT116, hypoxia by 150 μM cobalt chloride, MTT, FIG. 1c): higher levels of HCT116 colon cancer cell death in hypoxic conditions (Hypox) compared to normoxia
trypan blue uptake (cell death) ([1]; under hypoxia): increased trypan blue uptake under hypoxia
binding of purified enolase to compound affinity matrix (purified human enolase): purified human enolase binds to the ENOblock affinity matrix; also recorded: could bind to purified human enolase
competition by free compound for purified enolase binding to ENOblock affinity matrix (purified human enolase): inhibited purified enolase binding to the ENOblock affinity matrix
cancer cell invasion (HCT116 cancer cells [2]; 0.625-2.5 μM): inhibited invasion dose-dependently
treatment concentration at which cancer cell invasion is significantly inhibited (HCT116 cancer cells [2]; P value=0.0481): 0.625 µM
sensitivity to taxol and vincristine (cytotoxicity) (HCT116 cancer cells [3]): increased sensitivity to the antitubulin chemotherapeutics taxol and vincristine
glucose uptake (2-NBDG) (Huh7 hepatocytes): induced glucose uptake
glucose uptake (2-NBDG) (HEK kidney cells): induced glucose uptake
PEPCK expression [4]: inhibited expression of PEPCK
PEPCK expression [5]: inhibited expression of PEPCK
glucose 6-phosphatase (G6 Pase) expression [6]: did not affect expression of the enzymes
lipid accumulation during adipogenesis (Oil Red O, microscopy) ([7]; 10 μM): inhibited lipid accumulation
quantification of lipid accumulation during adipogenesis ([7]; ENOblock treatment with adipogenic cocktail): blocked lipid accumulation during adipogenesis
foam cell formation (Oil Red O staining, microscopy) (macrophages [8]): inhibited foam cell formation
foam cell formation (count of cells showing lipid accumulation) (macrophages [8]): inhibited foam cell formation
cytotoxicity to macrophages (MTT absorbance 570 nm) (macrophages [9]): not due to cytotoxicity
hepatic PEPCK expression in vivo [10]: inhibited PEPCK expression in adult zebrafish liver
